Assay results: ChEMBL document CHEMBL3880427, “P70 S6 kinase inhibitors” (2012)

Experiments:
Type in all cases: functional, HCT-116
[1] = Antitumor activity against human HCT116 cells xenografted in athymic nude mouse assessed as tumor volume at 60 mg/kg, po qd administered for 21 days measured on day 13 post last dose (reference value: 100.9 +/- 13.7 mm'3)
[2] = Antitumor activity against human HCT116 cells xenografted in athymic nude mouse assessed as tumor volume at 30 mg/kg, po bid administered for 21 days measured on day 23 post last dose (reference value: 402.2 +/- 43.1 mm'3)
[3] = Antitumor activity against human HCT116 cells xenografted in athymic nude mouse assessed as tumor volume at 60 mg/kg, po qd administered for 21 days measured on day 16 post last dose (reference value: 163.1 +/- 25.7 mm'3)
[4] = Antitumor activity against human HCT116 cells xenografted in athymic nude mouse assessed as tumor volume at 60 mg/kg, po qd administered for 21 days measured on day 8 post last dose (reference value: 38.5 +/- 4.1 mm'3)
[5] = Antitumor activity against human HCT116 cells xenografted in athymic nude mouse assessed as tumor volume at 60 mg/kg, po bid administered for 21 days measured on day 16 post last dose (reference value: 163.1 +/- 25.7 mm'3)
[6] = Antitumor activity against human HCT116 cells xenografted in athymic nude mouse assessed as tumor volume at 60 mg/kg, po qd administered for 21 days measured on day 23 post last dose (reference value: 402.2 +/- 43.1 mm'3)
[7] = Antitumor activity against human HCT116 cells xenografted in athymic nude mouse assessed as tumor volume at 30 mg/kg, po bid administered for 21 days measured on day 8 post last dose (reference value: 38.5 +/- 4.1 mm'3)
[8] = Antitumor activity against human HCT116 cells xenografted in athymic nude mouse assessed as tumor volume at 60 mg/kg, po bid administered for 21 days measured on day 23 post last dose (reference value: 402.2 +/- 43.1 mm'3)
[9] = Antitumor activity against human HCT116 cells xenografted in athymic nude mouse assessed as tumor volume at 30 mg/kg, po bid administered for 21 days measured on day 13 post last dose (reference value: 100.9 +/- 13.7 mm'3)
[10] = Antitumor activity against human HCT116 cells xenografted in athymic nude mouse assessed as tumor volume at 60 mg/kg, po bid administered for 21 days measured on day 13 post last dose (reference value: 100.9 +/- 13.7 mm'3)
[11] = Antitumor activity against human HCT116 cells xenografted in athymic nude mouse assessed as tumor volume at 30 mg/kg, po bid administered for 21 days measured on day 20 post last dose (reference value: 287.1 +/- 31.9 mm'3)
[12] = Antitumor activity against human HCT116 cells xenografted in athymic nude mouse assessed as tumor volume at 30 mg/kg, po bid administered for 21 days measured on day 27 post last dose (Rvb= 545 +/- 41.1 mm'3)
[13] = Antitumor activity against human HCT116 cells xenografted in athymic nude mouse assessed as tumor volume at 60 mg/kg, po bid administered for 21 days measured on day 8 post last dose (reference value: 38.5 +/- 4.1 mm'3)
[14] = Antitumor activity against human HCT116 cells xenografted in athymic nude mouse assessed as tumor volume at 60 mg/kg, po qd administered for 21 days measured on day 27 post last dose (Rvb= 545 +/- 41.1 mm'3)
[15] = Antitumor activity against human HCT116 cells xenografted in athymic nude mouse assessed as tumor volume at 60 mg/kg, po qd administered for 21 days measured on day 20 post last dose (reference value: 287.1 +/- 31.9 mm'3)
[16] = Antitumor activity against human HCT116 cells xenografted in athymic nude mouse assessed as tumor volume at 60 mg/kg, po bid administered for 21 days measured on day 27 post last dose (Rvb= 545 +/- 41.1 mm'3)
[17] = Antitumor activity against human HCT116 cells xenografted in athymic nude mouse assessed as tumor volume at 60 mg/kg, po bid administered for 21 days measured on day 20 post last dose (reference value: 287.1 +/- 31.9 mm'3)
[18] = Antitumor activity against human HCT116 cells xenografted in athymic nude mouse assessed as tumor volume at 30 mg/kg, po bid administered for 21 days measured on day 16 post last dose (reference value: 163.1 +/- 25.7 mm'3)

Cl.FC(F)(F)c1cccc(-c2c[nH]c(C3CCN(c4ncnc5[nH]ncc45)CC3)n2)c1
Activity [1]: 57.8 mm3 | Activity [2]: 192.7 mm3 | Activity [3]: 85 mm3 | Activity [4]: 30.6 mm3 | Activity [5]: 72.1 mm3 | Activity [6]: 194.5 mm3 | Activity [7]: 36.5 mm3 | Activity [8]: 188.4 mm3 | Activity [9]: 58.7 mm3 | Activity [10]: 42.1 mm3 | Activity [11]: 134.6 mm3 | Activity [12]: 296.3 mm3 | Activity [13]: 28.8 mm3 | Activity [14]: 252.7 mm3 | Activity [15]: 142.5 mm3 | Activity [16]: 280 mm3 | Activity [17]: 139 mm3 | Activity [18]: 90.9 mm3
